Where no end group is shown, it is not given here.
test system: anti-CD28 scFv; assay: Panning ELISA of clonal phage, anti-CD28 scFv, with or without CD28 soluble protein (Peptide-9 library); assay type: binding; details: Peptide-9 library, background (no anti-CD28 scFv)
Experimental: Clonal phage were harvested as crude supernatants and screened via standard enzyme linked immunosorbent assays (ELISAs). […] Prior to the addition of clonal phage, wells were incubated with blocking buffer and CD28 soluble protein or blocking buffer alone. Without washing or aspirating, clonal phage supernatants were then added to the wells and incubated for a short time. Wells were then washed followed by detection of bound phage using a horse radish peroxidase conjugated anti-M13 antibody. Clonal phage of interest were then sent for sequence analysis.

Chain of anti-CD28 scFv (as listed by the source): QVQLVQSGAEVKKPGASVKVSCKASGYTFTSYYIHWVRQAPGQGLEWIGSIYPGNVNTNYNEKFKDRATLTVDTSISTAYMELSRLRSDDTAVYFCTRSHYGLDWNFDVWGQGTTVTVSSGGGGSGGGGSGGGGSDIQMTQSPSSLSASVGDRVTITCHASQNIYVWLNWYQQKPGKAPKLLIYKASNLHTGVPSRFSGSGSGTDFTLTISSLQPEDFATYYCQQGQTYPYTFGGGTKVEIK

First: Phage-64 (MDWCPRALWAECFN; left off: large carriers)
Second: Phage-132 (MDWCPTYLWFECFN)
The Background signal of the first is lower: 0.068 for the first, 0.205 for the second.

First: Phage-40 (MDWCPIDMWDQCFN; not fully specified; cysteine pairing not given here)
Second: Phage-117 (MDWCPRYLWFECFS)
The Background signal of the first is lower: 0.061 for the first, 0.079 for the second.

Compared with Phage-423 (INLCPTPMWNRCWL), Phage-400 (MHWCPTYMWSECFA) is lower in Background signal: 0.119 for the first, 0.070 for the second.

Compared with Phage-109 (MDWCPKNLWHVCFN), Phage-420 (MFWCPSTMWNRCFD) is lower in Background signal: 0.081 for the first, 0.063 for the second.

Going from “Phage-60 (MDWCPRTLWYLCFN; left off: large carriers)” to Phage-121 (MDWCPRDLWHVCFF), the Background signal falls from 0.508 to 0.068.

Compared with Phage-441 (MDWCPRDRWDDCFF), Phage-125 (MDWCPVSLWHVCFY) is lower in Background signal: 0.114 for the first, 0.107 for the second.

First: Phage-139 (MDWCPRDLWDVCFA)
Second: Phage-53 (MDWCPMHLWNKCFN; not fully specified; cysteine pairing not given here)
The Background signal of the first is higher: 0.096 for the first, 0.071 for the second.

First: Phage-432 (IDWCPIIQGLPCFA)
Second: Phage-446 (MDWCPRDRWDDCFN)
The Background signal of the first is lower: 0.058 for the first, 0.069 for the second.

Compared with Phage-453 (MDWCPSDYWYVCFA), Phage-428 (MNWCPSTMWNRCLT) is higher in Background signal: 0.065 for the first, 0.067 for the second.

Compared with Phage-417 (IYWCPTAMWNRCSA), “Phage-62 (MDWCPSYLWNECFF; left off: large carriers)” is lower in Background signal: 0.086 for the first, 0.065 for the second.

Compared with Phage-436 (MDWCPRDRWADCFN), Phage-424 (ITQCPSTMWNRCSV) is higher in Background signal: 0.063 for the first, 0.067 for the second.

First: Phage-135 (MDWCPKFLWHECFS)
Second: Phage-412 (QHWCPRDMWNDCYA)
The Background signal of the first is lower: 0.065 for the first, 0.066 for the second.

Compared with Phage-435 (MDWCPRDRWVDCYA), “Phage-59 (MDWCPRDSWHLCFA; left off: large carriers)” is lower in Background signal: 0.157 for the first, 0.073 for the second.

Going from Phage-448 (MAWCPWASFDECLA) to “Phage-39 (MDWCPMHLWHQCFN; not fully specified; cysteine pairing not given here)”, the Background signal falls from 0.104 to 0.073.

Going from Phage-442 (IYWCPIDRWNDCYN) to Phage-444 (VNQCTRYRWAECLN), the Background signal rises from 0.177 to 0.465.

Compared with Phage-119 (MDWCPRYLWHMCYS), Phage-133 (MDWCPRFLWDECFF) is lower in Background signal: 0.129 for the first, 0.064 for the second.

First: Phage-114 (MDWCPRYLWFECFA)
Second: Phage-406 (MNWCPIDMWTECFN)
The Background signal of the first is lower: 0.066 for the first, 0.245 for the second.

First: Phage-127 (MDWCPRALWNECFA)
Second: Phage-410 (IDWCPRYMWHECFF)
The Background signal of the first is lower: 0.080 for the first, 0.098 for the second.

Compared with Phage-449 (MVDCPLISFDECLA), Phage-93 (MDWCPRYLWTVCFS) is lower in Background signal: 0.246 for the first, 0.115 for the second.

Compared with Phage-134 (MDWCPSYLWHECFA), Phage-431 (MAWCPADQWHECFN) is lower in Background signal: 0.096 for the first, 0.076 for the second.

First: Phage-96 (MDWCPRTLWAYCFN)
Second: Phage-97 (MDWCPKDLWDYCFA)
The Background signal of the first is lower: 0.070 for the first, 0.078 for the second.

Compared with Phage-445 (MDWCPRARWHDCFF), Phage-403 (MSWCPWDMWNECFA) is lower in Background signal: 0.097 for the first, 0.069 for the second.

Compared with Phage-401 (MDWCPLDMWVLCFA), Phage-99 (MDWCPRYLWNMCFH) is higher in Background signal: 0.085 for the first, 0.114 for the second.

First: Phage-100 (MDWCPRYLWTECFN)
Second: Phage-48 (IDWCPRYLWDECYN; not fully specified; cysteine pairing not given here)
The Background signal of the first is higher: 0.062 for the first, 0.061 for the second.

Going from Phage-413 (MDWCPSDMWSNCFN) to Phage-95 (MDWCPRFLWSECFN), the Background signal falls from 0.070 to 0.062.

Going from “Phage-58 (MHWCPIDRWADCFN; left off: large carriers)” to Phage-415 (MDWCPMYMWHKCFH), the Background signal rises from 0.074 to 0.099.

Compared with Phage-426 (MFLCPSAMWNRCFY), “Phage-41 (MAWCPRDKWSECFS; not fully specified; cysteine pairing not given here)” is lower in Background signal: 0.069 for the first, 0.062 for the second.

Going from Phage-407 (MNWCPIHMWNQCFA) to “Phage-42 (MDWCPRHLWVHCFN; not fully specified; cysteine pairing not given here)”, the Background signal falls from 0.085 to 0.071.

Going from Phage-113 (MDWCPRDLWNVCFF) to “Phage-43 (MDWCPRALWHECFY; not fully specified; cysteine pairing not given here)”, the Background signal falls from 0.164 to 0.115.

First: Phage-140 (MDWCPMDLWDVCFN)
Second: Phage-126 (MDWCPRFLWNECFN)
The Background signal of the first is higher: 0.090 for the first, 0.072 for the second.

Compared with “Phage-65 (MDWCPMYLWNECFN; left off: large carriers)”, Phage-440 (MDWCPRDRWVDCFN) is higher in Background signal: 0.064 for the first, 0.106 for the second.

First: Phage-405 (MDWCPMSMWAFCFD)
Second: Phage-131 (MDWCPRSLWIYCFN)
The Background signal of the first is lower: 0.102 for the first, 0.113 for the second.

Going from Phage-129 (MDWCPSYLWTVCFA) to Phage-141 (MDWCPRSLWNVCFF), the Background signal rises from 0.062 to 0.106.

Compared with “Phage-54 (MNWCPRDMWYQCFN; not fully specified; cysteine pairing not given here)”, Phage-437 (MDWCPVDRWADCFN) is higher in Background signal: 0.068 for the first, 0.071 for the second.

For Phage-404 (MDWCPRDMWTSCFN), the Background signal was 0,100.
Phage-427 (VILCPTTMWNRCFH) was tested, and the Background signal was 0,100.

same assay, conditions: background (no anti-CD28 scFv)

Compared with Phage-346 (MDWCPRHLWHACFS), Phage-305 (MDWCPRDLWTECFS) is higher in Background signal: 0.073 for the first, 0.080 for the second.

Going from Phage-374 (MAWCPLDLWDKCFY) to Phage-353 (IDWCPLHLWHECYH), the Background signal falls from 0.079 to 0.067.

First: Phage-326 (MFWCPITLWNECFN)
Second: Phage-285 (MDWCPRDLWAMCFA)
The Background signal of the first is higher: 0.075 for the first, 0.071 for the second.

First: Phage-286 (MERCPRYLWHMCYS)
Second: Phage-348 (MAWCPWYLWDECFN)
The Background signal of the first is lower: 0.164 for the first, 0.200 for the second.

Going from Phage-395 (MDWCPKDMWAECFN) to Phage-371 (MAWCPRYLWAECFF), the Background signal rises from 0.083 to 0.510.

First: Phage-393 (MDWCPRDMWFECFN)
Second: Phage-340 (MSWCPIDLWSECFA)
The Background signal of the first is lower: 0.069 for the first, 0.072 for the second.

Compared with Phage-330 (MDWCPRFLWDVCFN), Phage-301 (MDWCPRYLWHECFF) is lower in Background signal: 0.100 for the first, 0.082 for the second.

Going from Phage-311 (MDWCPRDLWYQCFN) to Phage-291 (MDWCPRYLWHVCFY), the Background signal rises from 0.069 to 0.227.

Going from Phage-364 (MDWCPRSLWAQCFY) to Phage-345 (MDFCPRFLWHECFN), the Background signal falls from 0.067 to 0.063.

Going from Phage-367 (MDWCPSFLWYECFN) to Phage-394 (MDWCPRYMWSDCFF), the Background signal rises from 0.063 to 0.082.

First: Phage-349 (LDWCPRHLWALCFN)
Second: Phage-342 (MDWCPRNLWHECFA)
The Background signal of the first is higher: 0.073 for the first, 0.067 for the second.

Going from Phage-324 (MDWCPRHLWYECFS) to Phage-321 (MDWCPRDLWYVCFA), the Background signal falls from 0.216 to 0.095.

First: Phage-347 (MDWCPLFLWDQCFN)
Second: Phage-387 (MDWCPRHLWLECFN)
The Background signal of the first is higher: 0.116 for the first, 0.064 for the second.

First: Phage-398 (MDWCPRNMWNECFF)
Second: Phage-350 (MDWCPWFLWNECFN)
The Background signal of the first is lower: 0.095 for the first, 0.158 for the second.

Going from Phage-375 (MNWCPRALWHECFL) to “Phage-277 (MDWCPRSHWSECFS; not fully specified; cysteine pairing not given here)”, the Background signal falls from 0.085 to 0.080.

First: Phage-310 (MDWCPRDLWDECFN)
Second: Phage-313 (MDWCPRSLWNYCFN)
The Background signal of the first is lower: 0.066 for the first, 0.076 for the second.

Compared with Phage-357 (MDWCPRLLWHECFN), Phage-300 (MDWCPRHLWFECFF) is higher in Background signal: 0.071 for the first, 0.178 for the second.

Compared with Phage-320 (MDWCPTYLWNECFN), Phage-334 (MDWCPRYLWDECFS) is lower in Background signal: 0.120 for the first, 0.069 for the second.

Going from Phage-379 (MDWCPRNLWAECFS) to Phage-338 (MDWCPRFLWNECFY), the Background signal rises from 0.061 to 0.143.

First: Phage-373 (MDWCPRILWSDCFN)
Second: Phage-333 (MDWCPTDLWHECFA)
The Background signal of the first is higher: 0.082 for the first, 0.078 for the second.

Going from Phage-316 (MDWCPRSLWNYCFA) to Phage-360 (MDWCPMFLWHECFS), the Background signal rises from 0.067 to 0.092.

First: Phage-396 (TDWCPRDMWYLCFN)
Second: Phage-339 (MDWCPRTLWDQCFF)
The Background signal of the first is lower: 0.082 for the first, 0.088 for the second.

Going from Phage-359 (MDWCPRPLWHECFA) to “Phage-276 (IDWCPKIHWDLCYF; not fully specified; cysteine pairing not given here)”, the Background signal rises from 0.063 to 0.072.

Compared with Phage-327 (MHWCPRDLWHVCFN), Phage-318 (MDWCPMFLWDECFN) is higher in Background signal: 0.071 for the first, 0.132 for the second.

Compared with “Phage-275 (MDWCPRDHWVDCYS; not fully specified; cysteine pairing not given here)”, Phage-369 (MHWCPRDLWYECFA) is lower in Background signal: 0.172 for the first, 0.072 for the second.

Substance Phage-368 (MSWCPPYLWTVCYN) has a Background signal of 0.176.
